The target of assay [1] is T1, recombinant human GBA (rhGBA, Imiglucerase) (Homo sapiens, UniProt P04062, R534H).
T1 construct: purchased Sanofi Genzyme (Cambridge, MA, USA)
T1 sequence (P04062 40-536 R534H): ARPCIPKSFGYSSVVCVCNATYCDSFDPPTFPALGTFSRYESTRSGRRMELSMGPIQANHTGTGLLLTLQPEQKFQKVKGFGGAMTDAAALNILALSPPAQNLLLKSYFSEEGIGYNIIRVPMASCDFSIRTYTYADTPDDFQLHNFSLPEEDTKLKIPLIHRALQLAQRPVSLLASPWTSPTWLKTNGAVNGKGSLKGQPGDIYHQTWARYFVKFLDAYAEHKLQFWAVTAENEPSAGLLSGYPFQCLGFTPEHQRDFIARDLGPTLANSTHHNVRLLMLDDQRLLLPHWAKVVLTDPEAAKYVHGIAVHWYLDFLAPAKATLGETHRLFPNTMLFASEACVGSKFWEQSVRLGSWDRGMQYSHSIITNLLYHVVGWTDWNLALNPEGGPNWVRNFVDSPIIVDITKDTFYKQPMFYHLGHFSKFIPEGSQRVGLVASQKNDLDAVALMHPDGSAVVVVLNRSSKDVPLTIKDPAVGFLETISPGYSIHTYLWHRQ
Nature of the assay: In vitro apparent IC50, fluorogenic substrate assay on rhGBA. It counts as biochemical. The protocol:
(§1) All assays were performed in duplicate sets, each with 3 technical replicates at each inhibitor concentration. DMSO concentration was kept at 0.5 %–1 % (v/v) in all assays during incubation with compounds. In vitro apparent IC50 values were calculated by fitting data with [inhibitor] vs. response‐various slope (four parameters) function using Graphpad Prism 7.0 software. Average values and standard deviations were calculated from the two sets.

Assay [2] concerns the target T2, human GBA2 (from lysates of GBA2 overexpressed cells) (Homo sapiens, UniProt Q9HCG7).
T2 construct: expressed in transfected cells; host or cells: HEK293T
T2 sequence (Q9HCG7 1-927): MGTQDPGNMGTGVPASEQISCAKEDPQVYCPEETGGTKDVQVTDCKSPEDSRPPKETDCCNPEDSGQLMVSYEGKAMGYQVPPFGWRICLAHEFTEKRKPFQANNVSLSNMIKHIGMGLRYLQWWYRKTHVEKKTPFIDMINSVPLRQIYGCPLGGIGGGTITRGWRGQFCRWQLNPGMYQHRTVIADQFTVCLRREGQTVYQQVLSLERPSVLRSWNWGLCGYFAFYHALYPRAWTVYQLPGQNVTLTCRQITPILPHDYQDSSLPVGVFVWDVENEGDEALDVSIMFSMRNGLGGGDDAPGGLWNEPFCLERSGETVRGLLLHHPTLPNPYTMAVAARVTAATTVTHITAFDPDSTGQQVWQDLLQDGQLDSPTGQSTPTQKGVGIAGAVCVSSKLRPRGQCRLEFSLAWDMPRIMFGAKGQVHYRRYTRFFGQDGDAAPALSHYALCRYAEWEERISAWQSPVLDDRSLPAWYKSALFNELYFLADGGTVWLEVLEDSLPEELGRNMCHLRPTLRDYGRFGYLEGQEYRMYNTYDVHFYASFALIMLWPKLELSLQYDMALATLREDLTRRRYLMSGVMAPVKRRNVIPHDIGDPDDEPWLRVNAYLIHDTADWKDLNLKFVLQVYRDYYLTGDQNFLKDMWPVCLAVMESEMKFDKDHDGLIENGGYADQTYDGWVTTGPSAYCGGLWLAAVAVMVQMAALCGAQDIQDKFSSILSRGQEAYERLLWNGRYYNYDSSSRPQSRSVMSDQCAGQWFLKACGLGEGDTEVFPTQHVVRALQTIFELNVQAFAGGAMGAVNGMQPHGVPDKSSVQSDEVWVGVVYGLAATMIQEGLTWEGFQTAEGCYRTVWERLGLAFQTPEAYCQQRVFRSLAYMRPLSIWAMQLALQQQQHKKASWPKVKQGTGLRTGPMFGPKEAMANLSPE
Nature of the assay: In vitro apparent IC50, fluorogenic substrate assay on GBA2 in lysates of overexpressing cells. It counts as biochemical. As to the method:
as §1

The target of assay [3] is T3, recombinant human GAA (rhGAA, Myozyme) (Homo sapiens, UniProt P10253).
T3 construct: purchased Sanofi Genzyme (Cambridge, MA, USA)
Nature of the assay: In vitro apparent IC50, fluorogenic substrate assay on rhGAA. It counts as biochemical. As to the method:
as §1

Assay [4] concerns the target T4, overexpressed GBA2 in HEK293T cells (Homo sapiens, UniProt Q9HCG7).
T4 construct: expressed in transfected cells; host or cells: HEK293T
T4 sequence (Q9HCG7 1-927): T2 sequence (Q9HCG7 1-927)
Nature of the assay: In situ labeling of GBA2 in living HEK293T cells (gel-based ABPP). It counts as cell-based. The conditions noted are these: HEK293T cells overexpressing GBA2, 1–1000 nM, 24 h, 37 °C. As to the method: HEK293T cells containing endogenous GBA and overexpressed GBA2 were treated with the ABPs at different concentrations (1–1000 nM) for 24 hr. Cells were then washed, lysed and the fluorescence was visualized by gel‐based ABPP (Figure 8).
CBB, Coomassie Brilliant Blue staining (bottom panel).
Labelling of HEK293T cells, containing endogenous GBA and overexpressed GBA2, with ABPs 6, 8 and 9 was conducted based on previously described methods[69] as outlined in the Supporting Information (page 7).
Cy5 tetrazine 20 (2.83 mg, 4.3 µmol) was added to a solution of norbornene 19 (0.94 mg, 2.38 µmol) in MeOH (4 mL). After stirring overnight at rt, the reaction mixture was concentrated in vacuo and purified by HPLC under neutral conditions (A: 50 mM NH4HCO3 in H2O; B: MeCN; 49% → 52%, A in […]
Biochemical Methods: General Experimental Details
Recombinant human GBA (rhGBA, imiglucerase, Cerezyme®) and GAA (rhGAA, alglucosidase alfa, Myozyme) were obtained from Sanofi Genzyme (Cambridge, MA, USA). HEK293T (CRL-3216) cell lines were purchased from ATCC (Manassas, VA, USA). Cell lines were […]
(1 picture or pasted object on this page, not shown here)

Read-outs that look alike come from different tables or passages of the source.

In general, IC50 refers to the concentration that gives 50% inhibition. `CCCCCCCCN1[C@@H]2[C@H](Cn3cc(CNC(=O)CCCCC[N+]4=C(/C=C/C=C/C=C5/N(C)c6ccccc6C5(C)C)C(C)(C)c5ccccc54)nn3)[C@@H](O)[C@H](O)[C@@H](O)[C@@H]21` (some centres unmarked) [ABP 6]: the IC50 in assay [1] (3 hr pre-incubation, read-out: apparent IC50 value, GBA) is 53 nM; in assay [1] (apparent IC50, 3 h pre-incubation, 4-methylumbelliferyl-β-glucoside substrate, ± SD from technical duplicates, read-out: In vitro rhGBA IC50), 53.1 ± 2.65 nM; in assay [2], above 100 µM; in assay [3], above 100 µM. In addition, the “ABP concentration at which in situ labeling of GBA2 is observed” value in assay [4] stood at 100 nM.

(Values after publication PMC9298352, “Design, Synthesis and Structural Analysis of Glucocerebrosidase Imaging Agents” (Chemistry (Weinheim an Der Bergstrasse, Germany), 2021).)
